Earlier results, collected in patent publication US5739336A, “1,3,8-triaza- and 3,8-diaza-1-oxaspiro [4,5] decane derivatives” (Syntex (U.S.A.) Inc., priority 1996, dated 1998).

Tests used:
rats [1] = system: rats
migraine = conditions: human, in vivo
human volunteers [2] = system: human volunteers
human volunteers [3] = system: human volunteers; remark: listed apart in the source
rat = conditions: SI and elevated X-maze models
human volunteers [4] = conditions: for slow wave sleep (SWS): human/healthy volunteers
rats [5] = system: rats; remark: listed apart in the source
[6] = system: panic disorder patients or obsessive compulsive disorder patients
[7] = system: patients withdrawing from other drugs of abuse

| SMILES | alcohol preference (rats [1]) | clinical effectiveness as antimigraine agent (migraine) | anxiety on administration (human volunteers [2]) | migraine-like headaches (human volunteers [3]) | craving for alcohol (abstaining alcoholics) | anxiogenic effects (rat) | rapid eye movement sleep (human volunteers [4]; human volunteers) | sleep efficiency (human volunteers [4]; human volunteers) | total sleep time (human volunteers [4]; human volunteers) | slow wave sleep (SWS) (human volunteers [4]) | penile erections (rats [5]) | levels of panic and/or anxiety [6] | cocaine and fentanyl preference (rat models of addiction) | alcohol intake (chronic alcoholics) | sleep onset latency (human volunteers [4]; healthy volunteers) | subjective sleep quality (human volunteers [4]; healthy volunteers) | usefulness in withdrawal from other drugs of abuse [7] |
| --- | --- | --- | --- | --- | --- | --- | --- | --- | --- | --- | --- | --- | --- | --- | --- | --- | --- |
| O=C(c1ccc(F)cc1)C1CCN(CCn2c(=O)[nH]c3ccccc3c2=O)CC1 [ketanserin] | has no affect on preference for alcohol | is not |  |  |  |  |  |  |  |  |  |  |  |  |  |  |  |
| Clc1cccc(N2CCNCC2)c1 [mCPP, 1-(3-chlorophenyl)piperazine] |  |  | causes anxiety | causes migraine-like headaches | induces a craving for alcohol | produces anxiogenic effects | reduces total sleep time, sleep efficiency, slow wave sleep (SWS) and rapid eye movement sleep | reduces total sleep time, sleep efficiency | reduces total sleep time | reduces total sleep time, sleep efficiency, slow wave sleep (SWS) | produces penile erections in rats | increases levels of panic and/or anxiety |  |  |  |  |  |
| Cc1nc2sccn2c(=O)c1CCN1CCC(=C(c2ccc(F)cc2)c2ccc(F)cc2)CC1 [ritanserin] | reduces alcohol preference |  |  |  |  |  |  |  |  | increases SWS |  |  | reduces both cocaine and fentanyl preference | decreases alcohol intake | reduces sleep onset latency | improves subjective sleep quality | is useful in patients withdrawing from other drugs of abuse |
